Measured values taken from patent publication US8937041B2, “Macrocyclic hepatitis C serine protease inhibitors” (AbbVie, Inc., priority 2010, dated 2015).
pEC50, pIC50: −log10 of the molar value.

Key:
[1] = biological target: recombinant HCV NS3 protease, genotype 1a (Hepatitis C virus genotype 1a, UniProt P27958); experiment: biochemical; settings: genotype 1a NS3 protease; read-out: IC50 in a 1a enzyme assay
[2] = biological target: recombinant HCV NS3 protease, genotype 1b (Hepatitis C virus genotype 1b, UniProt Q9WMX2); experiment: biochemical; settings: genotype 1b NS3 protease; read-out: IC50 in a 1b enzyme assay
HLM stability = assay type: in vitro ADME
[3] = test system: HCV genotype 1a replicon (1a-H77); experiment: microbe, parasite or virus in culture; assay type: cell-based; settings: Hepatitis C virus, read-out: EC50 in a replicon cell line assay in a 1a-H77 background
[4] = test system: HCV genotype 1b replicon (1b-Con-1); experiment: microbe, parasite or virus in culture; assay type: cell-based; settings: Hepatitis C virus, read-out: EC50 in a replicon cell line assay in a 1b-con1 background

Sequence of recombinant HCV NS3 protease, genotype 1a (P27958 1027-1657, other chains not shown): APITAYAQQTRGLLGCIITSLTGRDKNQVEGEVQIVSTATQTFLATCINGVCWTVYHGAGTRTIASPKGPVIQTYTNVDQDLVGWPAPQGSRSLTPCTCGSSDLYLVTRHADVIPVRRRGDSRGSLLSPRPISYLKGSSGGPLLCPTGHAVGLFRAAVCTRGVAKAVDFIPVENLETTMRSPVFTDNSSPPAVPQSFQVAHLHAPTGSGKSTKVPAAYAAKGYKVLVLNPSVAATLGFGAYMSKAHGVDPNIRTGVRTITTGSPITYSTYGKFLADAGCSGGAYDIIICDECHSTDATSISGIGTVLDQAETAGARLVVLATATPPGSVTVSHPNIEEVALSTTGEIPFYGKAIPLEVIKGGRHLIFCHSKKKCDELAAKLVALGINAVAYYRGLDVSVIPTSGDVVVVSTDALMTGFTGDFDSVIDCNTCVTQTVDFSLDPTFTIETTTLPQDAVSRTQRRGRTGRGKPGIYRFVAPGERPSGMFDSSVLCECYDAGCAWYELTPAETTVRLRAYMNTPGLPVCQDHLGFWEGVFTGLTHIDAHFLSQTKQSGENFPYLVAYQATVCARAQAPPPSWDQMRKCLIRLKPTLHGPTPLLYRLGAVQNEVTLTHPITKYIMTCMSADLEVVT
Sequence of recombinant HCV NS3 protease, genotype 1b (Q9WMX2 1027-1657, other chains not shown): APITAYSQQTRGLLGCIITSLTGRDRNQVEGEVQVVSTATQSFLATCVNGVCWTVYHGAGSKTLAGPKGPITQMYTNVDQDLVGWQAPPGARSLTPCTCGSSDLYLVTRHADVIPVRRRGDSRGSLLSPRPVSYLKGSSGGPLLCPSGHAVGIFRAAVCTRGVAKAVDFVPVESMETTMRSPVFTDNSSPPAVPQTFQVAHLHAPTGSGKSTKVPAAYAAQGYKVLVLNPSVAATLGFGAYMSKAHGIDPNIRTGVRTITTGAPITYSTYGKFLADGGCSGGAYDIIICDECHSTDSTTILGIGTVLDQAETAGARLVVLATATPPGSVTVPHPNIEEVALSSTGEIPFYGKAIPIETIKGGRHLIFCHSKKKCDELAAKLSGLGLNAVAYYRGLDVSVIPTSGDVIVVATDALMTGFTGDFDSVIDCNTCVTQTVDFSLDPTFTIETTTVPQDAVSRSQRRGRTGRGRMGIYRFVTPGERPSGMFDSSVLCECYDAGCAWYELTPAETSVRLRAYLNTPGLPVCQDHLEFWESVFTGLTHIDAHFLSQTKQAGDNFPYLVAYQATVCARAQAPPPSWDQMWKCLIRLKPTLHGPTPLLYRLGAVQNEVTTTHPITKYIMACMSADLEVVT

SMILES | pIC50 [1] | pIC50 [2] | HLM stability value (HLM stability) | pEC50 [3] | pEC50 [4]
CCc1nc2ccccc2nc1O[C@@H]1C[C@H]2C(=O)N[C@]3(C(=O)NS(=O)(=O)C4CC4)C[C@H]3CC(F)(F)CCCCC[C@H](NC(=O)C(C)(C)C)C(=O)N2C1 [Example 12, (2R,6S,13aS,14aR,16a5)-N-(cyclopropylsulfonyl)-2-(3-ethylquinoxalin-2-yloxy)-12,12-difluoro-5,16-dioxo-6-pivalamidooctadecahydrocyclopropa[e]pyrrolo[1,2-a][1,4]diazacyclopentadecine-14a-carboxamide] | 9.00 to 9.30 | 9.00 to 9.30 | < 50 µL/min/mg | < 8.30 | < 8.30
Cc1cc(C(=O)N[C@H]2CCCCCC(F)(F)C[C@@H]3C[C@@]3(C(=O)NS(=O)(=O)C3CC3)NC(=O)[C@@H]3C[C@@H](Oc4nc5ccccc5nc4-c4nc5ccccc5s4)CN3C2=O)no1 [Example 14, N-((2R,6S,13aS,14aR,16aS)-2-(3-(benzo[d]thiazol-2-yl)quinoxalin-2-yloxy)-14a-(cyclopropylsulfonylcarbamoyl)-12,12-difluoro-5,16-dioxooctadecahydrocyclopropa[e]pyrrolo [1,2-a][1,4]diazacyclopentadecin-6-yl)-5-methylisoxazole-3-carboxamide] | 9.30 to 10.00 | 9.30 to 10.00 | < 50 µL/min/mg | 8.30 to 8.70 | 8.70 to 9.00
CC(C)(C)OC(=O)N[C@H]1CCCCCC(F)(F)C[C@@H]2C[C@@]2(C(=O)NS(=O)(=O)C2CC2)NC(=O)[C@@H]2C[C@@H](Oc3nc4ccccc4c4ccccc34)CN2C1=O [Example 19, tert-butyl (2R,6S,13aS,14aR,16aS)-14a-(cyclopropylsulfonylcarbamoyl)-12,12-difluoro-5,16-dioxo-2-(phenanthridin-6-yloxy)octadecahydrocyclopropa[e]pyrrolo[1,2-a][1,4]diazacyclopentadecin-6-ylcarbamate] | > 10.00 | > 10.00 | > 100 µL/min/mg | > 9.00 | > 9.00
